Source: ChEMBL document CHEMBL1201862, “PubChem BioAssay data set” (2004)
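Five concentrations, 48 hours, 96-well plates. GI50 is the concentration that inhibits growth by half.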 The source made the active and inactive calls. No stated cut-off is given here; in the data, active = GI50 up to about 1.1 µM and inactive = higher.

Assays:
Assay in all cases: DTP human tumour cell line panel, 48 h
LOX IMVI = system: LOX IMVI
OVCAR-5 = system: OVCAR-5
OVCAR-3 = system: OVCAR-3
NCI-H226 = system: NCI-H226
SK-MEL-28 = system: SK-MEL-28
A549 = system: A549
NCI-H522 = system: NCI-H522
SK-MEL-5 = system: SK-MEL-5
DU-145 = system: DU-145
UO-31 = system: UO-31
K562 = system: K562
HL-60 = system: HL-60
SF-295 = system: SF-295
SW-620 = system: SW-620
NCI/ADR-RES = system: NCI/ADR-RES
MCF7 = system: MCF7
SK-MEL-2 = system: SK-MEL-2
OVCAR-8 = system: OVCAR-8
Malme-3M = system: Malme-3M

O=C1c2ccccc2CCC1C(O)(C(F)(F)F)C(F)(F)F (stereo not drawn)
GI50 (LOX IMVI): > 100 µM (inactive)
GI50 (OVCAR-5): > 100 µM (inactive)
GI50 (OVCAR-3): > 100 µM (inactive)
GI50 (NCI-H226): > 100 µM (inactive)
GI50 (SK-MEL-28): > 100 µM (inactive)
GI50 (A549): > 100 µM (inactive)
GI50 (NCI-H522): > 100 µM (inactive)
GI50 (SK-MEL-5): 49.2 µM (inactive)
GI50 (DU-145): > 100 µM (inactive)
GI50 (UO-31): > 100 µM (inactive)
GI50 (K562): > 100 µM (inactive)
GI50 (HL-60): > 10 µM (inactive)
GI50 (SF-295): > 100 µM (inactive)
GI50 (SW-620): > 100 µM (inactive)
GI50 (NCI/ADR-RES): > 100 µM (inactive)
GI50 (MCF7): > 100 µM (inactive)
GI50 (SK-MEL-2): 27.5 µM (inactive)
GI50 (OVCAR-8): > 100 µM (inactive)
GI50 (Malme-3M): > 100 µM (inactive)

COc1ccc(-n2nnc3c(C#N)c(-c4ccccc4)c(C)n3c2=O)cc1
GI50 (LOX IMVI): 33.8 µM (inactive)
GI50 (OVCAR-5): > 100 µM (inactive)
GI50 (OVCAR-3): 28.2 µM (inactive)
GI50 (NCI-H226): 85.1 µM (inactive)
GI50 (SK-MEL-28): > 100 µM (inactive)
GI50 (A549): > 100 µM (inactive)
GI50 (NCI-H522): 22.6 µM (inactive)
GI50 (SK-MEL-5): 14.8 µM (inactive)
GI50 (DU-145): 74.8 µM (inactive)
GI50 (UO-31): 71.3 µM (inactive)
GI50 (K562): 18.4 µM (inactive)
GI50 (HL-60): 3.69 µM (inactive)
GI50 (SF-295): 54.6 µM (inactive)
GI50 (SW-620): 27.2 µM (inactive)
GI50 (NCI/ADR-RES): 66.2 µM (inactive)
GI50 (MCF7): 40.2 µM (inactive)
GI50 (SK-MEL-2): 28 µM (inactive)
GI50 (OVCAR-8): 27.4 µM (inactive)
GI50 (Malme-3M): > 100 µM (inactive)

C#CCNC(Cc1c[nH]cn1)C(=O)O (stereo not drawn)
GI50 (LOX IMVI): > 100 µM (inactive)
GI50 (OVCAR-5): > 100 µM (inactive)
GI50 (OVCAR-3): > 100 µM (inactive)
GI50 (NCI-H226): > 100 µM (inactive)
GI50 (SK-MEL-28): > 100 µM (inactive)
GI50 (A549): > 100 µM (inactive)
GI50 (NCI-H522): > 100 µM (inactive)
GI50 (SK-MEL-5): > 100 µM (inactive)
GI50 (DU-145): > 100 µM (inactive)
GI50 (UO-31): > 100 µM (inactive)
GI50 (K562): > 100 µM (inactive)
GI50 (HL-60): 89.3 µM (inactive)
GI50 (SF-295): > 100 µM (inactive)
GI50 (SW-620): > 100 µM (inactive)
GI50 (NCI/ADR-RES): > 100 µM (inactive)
GI50 (MCF7): > 100 µM (inactive)
GI50 (SK-MEL-2): > 100 µM (inactive)
GI50 (OVCAR-8): > 100 µM (inactive)
GI50 (Malme-3M): > 100 µM (inactive)

CCNc1ncnc2sc(SCc3ccccc3)nc12
GI50 (LOX IMVI): 95.9 µM (inactive)
GI50 (OVCAR-5): > 100 µM (inactive)
GI50 (OVCAR-3): > 100 µM (inactive)
GI50 (NCI-H226): > 100 µM (inactive)
GI50 (SK-MEL-28): > 100 µM (inactive)
GI50 (A549): 36.5 µM (inactive)
GI50 (NCI-H522): 62.2 µM (inactive)
GI50 (SK-MEL-5): 25.6 µM (inactive)
GI50 (DU-145): 75.7 µM (inactive)
GI50 (UO-31): 36.8 µM (inactive)
GI50 (K562): 81.7 µM (inactive)
GI50 (HL-60): 16.6 µM (inactive)
GI50 (SF-295): 89.5 µM (inactive)
GI50 (SW-620): > 100 µM (inactive)
GI50 (NCI/ADR-RES): 34.8 µM (inactive)
GI50 (MCF7): 79.6 µM (inactive)
GI50 (SK-MEL-2): > 100 µM (inactive)
GI50 (OVCAR-8): 80.9 µM (inactive)
GI50 (Malme-3M): > 100 µM (inactive)

O=C(CNC(=O)OCc1ccccc1)NCCCCC(NC(=O)OCc1ccccc1)C(=O)O (stereo not drawn)
GI50 (LOX IMVI): > 100 µM (inactive)
GI50 (OVCAR-5): > 100 µM (inactive)
GI50 (OVCAR-3): > 100 µM (inactive)
GI50 (NCI-H226): > 100 µM (inactive)
GI50 (SK-MEL-28): > 100 µM (inactive)
GI50 (A549): > 100 µM (inactive)
GI50 (NCI-H522): > 100 µM (inactive)
GI50 (SK-MEL-5): > 100 µM (inactive)
GI50 (DU-145): > 100 µM (inactive)
GI50 (UO-31): > 100 µM (inactive)
GI50 (K562): > 100 µM (inactive)
GI50 (HL-60): > 100 µM (inactive)
GI50 (SF-295): > 100 µM (inactive)
GI50 (SW-620): > 100 µM (inactive)
GI50 (NCI/ADR-RES): > 100 µM (inactive)
GI50 (MCF7): > 100 µM (inactive)
GI50 (SK-MEL-2): > 100 µM (inactive)
GI50 (OVCAR-8): > 100 µM (inactive)
GI50 (Malme-3M): > 100 µM (inactive)

CN1C(=O)[C@](C)(Cc2ccc(F)cc2)N(C(=O)OC(C)(C)C)[C@@H]1C(C)(C)C
GI50 (LOX IMVI): 21.6 µM (inactive)
GI50 (OVCAR-5): > 100 µM (inactive)
GI50 (OVCAR-3): 31.5 µM (inactive)
GI50 (NCI-H226): 23.6 µM (inactive)
GI50 (SK-MEL-28): 55.3 µM (inactive)
GI50 (A549): 42.4 µM (inactive)
GI50 (NCI-H522): 23.1 µM (inactive)
GI50 (SK-MEL-5): 19.6 µM (inactive)
GI50 (DU-145): 42.3 µM (inactive)
GI50 (UO-31): 33.6 µM (inactive)
GI50 (K562): 25.6 µM (inactive)
GI50 (HL-60): 11.4 µM (inactive)
GI50 (SF-295): 20.3 µM (inactive)
GI50 (SW-620): 37.3 µM (inactive)
GI50 (NCI/ADR-RES): 20.4 µM (inactive)
GI50 (MCF7): 22.8 µM (inactive)
GI50 (SK-MEL-2): 31.3 µM (inactive)
GI50 (OVCAR-8): 28.8 µM (inactive)
GI50 (Malme-3M): > 100 µM (inactive)

CCN(CC)C(=S)N/N=C/c1cc([N+](=O)[O-])ccc1O
GI50 (LOX IMVI): 3.01 µM (inactive)
GI50 (OVCAR-5): 24.3 µM (inactive)
GI50 (OVCAR-3): 0.0528 µM (active)
GI50 (NCI-H226): 2.31 µM (inactive)
GI50 (SK-MEL-28): 5.11 µM (inactive)
GI50 (A549): 12.8 µM (inactive)
GI50 (NCI-H522): 5.07 µM (inactive)
GI50 (SK-MEL-5): 2.02 µM (inactive)
GI50 (DU-145): 4.56 µM (inactive)
GI50 (UO-31): 3.12 µM (inactive)
GI50 (K562): 3.18 µM (inactive)
GI50 (HL-60): 1.69 µM (inactive)
GI50 (SF-295): 4.56 µM (inactive)
GI50 (SW-620): 6.35 µM (inactive)
GI50 (NCI/ADR-RES): 3.01 µM (inactive)
GI50 (MCF7): 2.22 µM (inactive)
GI50 (SK-MEL-2): 16.4 µM (inactive)
GI50 (OVCAR-8): 3.56 µM (inactive)
GI50 (Malme-3M): 6.68 µM (inactive)
